From paper PMC7689250, “Synthetic Peptide Libraries Designed From a Minimal Alpha-Helical Domain of AS-48-Bacteriocin Homologs Exhibit Potent Antibacterial Activity” (Frontiers in Microbiology, 2020)
Where two headings read alike, the source gives them in different places. Residues, ends and D or L forms follow the SMILES beside them.

Key:
S. pyogenes (M1) = type: cell-based, Streptococcus pyogenes; conditions: for MBC: M1
Method in brief: (§1)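 MIC in Mueller-Hinton broth with 1 × 10^6 CFU/mL bacteria, overnight cultures grown first in LB (E. coli, P. aeruginosa, S. aureus) or Todd-Hewitt (S. pyogenes); growth read as OD 600. Library members screened at half the parent peptide MIC; MBC as lowest concentration giving no colonies after plating MIC wells, 37°C overnight.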

E. coli (BL21) = type: cell-based, Escherichia coli
Method in brief: as §1

sheep erythrocytes = type: cell-based; conditions: red cells of sheep, 1 h
Description: To determine if peptide variants were hemolytic, fresh defibrinated whole sheep blood (Hardy Diagnostics) was washed three times in cold PBS, and washed blood was diluted 1:25 in PBS. Treatments were applied at a 1:10 ratio of sample:blood, where the sample was either 10% Triton, PBS, or a specific peptide concentration corresponding to concentrations used in the MIC assays. Treatments were incubated with the blood for 1 h at 37°C. Following incubation, samples were centrifuged at […] for 10 min at 4°C, and the absorbance of the supernatants at 450 nm was measured on the Synergy H1 Microplate Reader to measure the release of hemoglobin. Percent hemolysis was quantified by normalizing to the negative and positive controls.

S. aureus (USA300) = type: cell-based, Staphylococcus aureus
Method in brief: as §1

P. aeruginosa (PAO1) = type: cell-based, Pseudomonas aeruginosa; conditions: for MBC: PAO1; for MIC: PAO1, 16 h
Method in brief: as §1

MIC (S. pyogenes (M1); M1, 16 h) | MIC (E. coli (BL21); BL21, 16 h) | MIC (S. aureus (USA300); USA300, 16 h) | MIC (P. aeruginosa (PAO1)) | MIC (S. pyogenes (M1); S. pyogenes M1) | MIC (E. coli (BL21); E. coli BL21) | MIC (S. pyogenes (M1); S. pyogenes M1, running text b43, unit printed nm) | MIC (S. aureus (USA300); USA300) | Structure (SMILES) | MBC (S. pyogenes (M1)) | MBC (E. coli (BL21); BL21) | Percent Hemolysis (sheep erythrocytes) | MBC (S. aureus (USA300); USA300) | MBC (P. aeruginosa (PAO1)) | MBC (E. coli (BL21); E. coli BL21)
2 µM | 2 µM | >128 µM | 16 µM | – | – | – | – | CC[C@H](C)[C@H](NC(=O)[C@H](Cc1c[nH]c2ccccc12)NC(=O)[C@H](CCC(N)=O)NC(=O)[C@H](CCCNC(=N)N)NC(=O)CNC(=O)[C@H](C)N)C(=O)N[C@@H](CCCCN)C(=O)N[C@@H](C)C(=O)N[C@@H](Cc1ccc(O)cc1)C(=O)N[C@@H](CC(C)C)C(=O)N[C@@H](CCCNC(=N)N)C(=O)N[C@@H](CCCNC(=N)N)C(=O)N[C@@H](CCC(=O)O)C(=O)N[C@H](C(=O)N[C@@H](CCCNC(=N)N)C(=O)N[C@@H](CCCCN)C(=O)N[C@@H](CCCNC(=N)N)C(=O)NCC(=O)N[C@@H](CCCNC(=N)N)C(=O)N[C@@H](CCCCN)C(=O)N[C@@H](C)C(=O)N[C@H](C(=O)N[C@H](C(=O)N[C@@H](C)C(=O)N[C@@H](Cc1c[nH]c2ccccc12)C(=O)O)[C@@H](C)CC)C(C)C)[C@@H](C)CC [Syn-sordellicin-41] (H-AGRQWIKAYLRREIRKRGRKAVIAW-OH; N-terminus and C-terminus assumed) | 4 µM | 2 µM | 15.5% | >128 µM | 16 µM | –
– | 0.25 µM | >128 µM | 32 µM | 0.125 µM | – | – | – | CC[C@H](C)[C@H](NC(=O)[C@H](CCCCN)NC(=O)[C@H](CCCCN)NC(=O)CNC(=O)[C@H](CCC(=O)O)NC(=O)[C@H](CC(N)=O)NC(=O)[C@@H](NC(=O)[C@@H](NC(=O)[C@H](CCCCN)NC(=O)[C@H](CCCCN)NC(=O)[C@H](CC(C)C)NC(=O)[C@H](CCCNC(=N)N)NC(=O)[C@H](CC(N)=O)NC(=O)[C@H](Cc1ccccc1)NC(=O)[C@@H](NC(=O)[C@H](CCCCN)NC(=O)[C@H](CCC(=O)O)NC(=O)[C@@H](NC(=O)CNC(=O)[C@H](C)N)[C@@H](C)O)[C@@H](C)CC)[C@@H](C)O)[C@@H](C)CC)C(=O)N[C@@H](C)C(=O)N[C@@H](CCCCN)C(=O)N[C@@H](CCCNC(=N)N)C(=O)N[C@@H](Cc1c[nH]c2ccccc12)C(=O)N[C@@H](Cc1c[nH]c2ccccc12)C(=O)O [Syn-larvacin-72] (H-AGTEKIFNRLKKTINEGKKIAKRWW-OH; N-terminus and C-terminus assumed) | 2 µM | 0.25 µM | 26.3% | >128 µM | 64 µM | –
2 µM | 4 µM | >128 µM | >128 µM | – | – | – | – | CC[C@H](C)[C@H](NC(=O)[C@H](Cc1ccccc1)NC(=O)[C@H](C)NC(=O)[C@H](CCCCN)NC(=O)[C@H](CCCCN)NC(=O)CNC(=O)[C@H](CCCNC(=N)N)NC(=O)[C@H](CCCCN)NC(=O)[C@H](CCCNC(=N)N)NC(=O)[C@H](CC(C)C)NC(=O)[C@H](CCC(=O)O)NC(=O)[C@H](CCC(=O)O)NC(=O)[C@H](CC(C)C)NC(=O)[C@H](CC(C)C)NC(=O)[C@H](Cc1ccc(O)cc1)NC(=O)[C@H](CCCCN)NC(=O)[C@@H](NC(=O)[C@H](CC(C)C)NC(=O)[C@H](C)NC(=O)[C@H](CCC(N)=O)NC(=O)[C@H](CCCNC(=N)N)NC(=O)CNC(=O)[C@H](C)N)[C@@H](C)O)C(=O)N[C@@H](Cc1c[nH]c2ccccc12)C(=O)N[C@@H](Cc1c[nH]c2ccccc12)C(=O)O [Syn-xiamencin-60] (H-AGRQALTKYLLEELRKRGKKAFIWW-OH; N-terminus and C-terminus assumed) | 4 µM | 8 µM | 10.9% | >128 µM | >128 µM | –
– | – | <0.25 µM | 16 µM | 0.125 µM | 0.25 µM | 0.125 µM | 0.25 µM | CC[C@H](C)[C@H](NC(=O)[C@H](CCCCN)NC(=O)[C@H](CCCCN)NC(=O)CNC(=O)[C@H](CCC(=O)O)NC(=O)[C@H](CCC(N)=O)NC(=O)[C@@H](NC(=O)[C@@H](NC(=O)[C@H](CCCCN)NC(=O)[C@H](CCCCN)NC(=O)[C@H](CC(C)C)NC(=O)[C@H](CCCNC(=N)N)NC(=O)[C@H](CCC(N)=O)NC(=O)[C@H](Cc1ccccc1)NC(=O)[C@@H](NC(=O)[C@H](CCCCN)NC(=O)[C@H](CCC(=O)O)NC(=O)[C@@H](NC(=O)CNC(=O)[C@H](C)N)[C@@H](C)O)[C@@H](C)CC)[C@@H](C)O)[C@@H](C)CC)C(=O)N[C@@H](C)C(=O)N[C@@H](CCCCN)C(=O)N[C@@H](CCCNC(=N)N)C(=O)N[C@@H](Cc1c[nH]c2ccccc12)C(=O)N[C@@H](Cc1c[nH]c2ccccc12)C(=O)O [Syn-larvacin-71] (H-AGTEKIFQRLKKTIQEGKKIAKRWW-OH; N-terminus and C-terminus assumed) | 0.125 µM | – | 20.6% | <0.25 µM | 32 µM | 0.25 µM

The next lines start with the molecule.

Structure (SMILES) | MIC (S. pyogenes (M1); M1, 16 h) | MIC (E. coli (BL21); BL21, 16 h) | MIC (S. aureus (USA300); USA300, 16 h) | MIC (P. aeruginosa (PAO1)) | MIC (S. pyogenes (M1); S. pyogenes M1) | MIC (E. coli (BL21); E. coli BL21) | MIC (S. pyogenes (M1); S. pyogenes M1, running text b43, unit printed nm) | MIC (S. aureus (USA300); USA300) | MBC (S. pyogenes (M1)) | MBC (E. coli (BL21); BL21) | Percent Hemolysis (sheep erythrocytes) | MBC (S. aureus (USA300); USA300) | MBC (P. aeruginosa (PAO1)) | MBC (E. coli (BL21); E. coli BL21)
CC[C@H](C)[C@H](NC(=O)[C@H](CCCNC(=N)N)NC(=O)[C@H](CCC(N)=O)NC(=O)[C@@H](NC(=O)CNC(=O)[C@@H](N)Cc1c[nH]c2ccccc12)[C@@H](C)O)C(=O)N[C@@H](CCCCN)C(=O)N[C@@H](C)C(=O)N[C@@H](Cc1ccc(O)cc1)C(=O)N[C@@H](CC(C)C)C(=O)N[C@@H](CCCNC(=N)N)C(=O)N[C@@H](CCCNC(=N)N)C(=O)N[C@@H](CCC(=O)O)C(=O)N[C@H](C(=O)N[C@@H](CCCNC(=N)N)C(=O)N[C@@H](CCCCN)C(=O)N[C@@H](CCCNC(=N)N)C(=O)NCC(=O)N[C@@H](CCCNC(=N)N)C(=O)N[C@@H](CCCCN)C(=O)N[C@@H](C)C(=O)N[C@H](C(=O)N[C@H](C(=O)N[C@@H](C)C(=O)N[C@@H](Cc1c[nH]c2ccccc12)C(=O)O)[C@@H](C)CC)C(C)C)[C@@H](C)CC [Syn-sordellicin-11] (H-WGTQRIKAYLRREIRKRGRKAVIAW-OH; N-terminus and C-terminus assumed) | – | 2 µM | >128 µM | 8 µM | 0.5 µM | – | – | – | 0.5 µM | 2 µM | 21.3% | >128 µM | 8 µM | –
CC[C@H](C)[C@H](NC(=O)[C@H](Cc1ccccc1)NC(=O)[C@H](C)NC(=O)[C@H](CCCCN)NC(=O)[C@H](CCCCN)NC(=O)[C@H](Cc1c[nH]c2ccccc12)NC(=O)[C@H](CCCNC(=N)N)NC(=O)[C@H](CCCCN)NC(=O)[C@H](CCCNC(=N)N)NC(=O)[C@H](CC(C)C)NC(=O)[C@H](CCC(=O)O)NC(=O)[C@H](CCC(=O)O)NC(=O)[C@H](CC(C)C)NC(=O)[C@H](CC(C)C)NC(=O)[C@H](Cc1ccc(O)cc1)NC(=O)[C@H](CCCCN)NC(=O)[C@@H](NC(=O)[C@H](CC(C)C)NC(=O)[C@H](C)NC(=O)[C@H](CCC(N)=O)NC(=O)[C@H](CCCNC(=N)N)NC(=O)CNC(=O)[C@H](C)N)[C@@H](C)O)C(=O)N[C@@H](C)C(=O)N[C@@H](Cc1c[nH]c2ccccc12)C(=O)O [Syn-xiamencin-20] (H-AGRQALTKYLLEELRKRWKKAFIAW-OH; N-terminus and C-terminus assumed) | 2 µM | 1 µM | 32 µM | 64 µM | – | – | – | – | 2 µM | 1 µM | 10.5% | 32 µM | 64 µM | –
CC[C@H](C)[C@H](NC(=O)[C@H](CCCNC(=N)N)NC(=O)[C@H](CC(N)=O)NC(=O)[C@@H](NC(=O)CNC(=O)[C@H](C)N)[C@@H](C)O)C(=O)N[C@@H](C)C(=O)N[C@@H](CCCCN)C(=O)N[C@@H](CCC(=O)O)C(=O)N[C@@H](CC(C)C)C(=O)N[C@@H](CCCNC(=N)N)C(=O)N[C@@H](CCCNC(=N)N)C(=O)N[C@@H](Cc1ccc(O)cc1)C(=O)N[C@H](C(=O)N[C@@H](CCCNC(=N)N)C(=O)N[C@@H](CCCCN)C(=O)N[C@H](C(=O)NCC(=O)N[C@@H](CCCNC(=N)N)C(=O)N[C@H](C(=O)N[C@@H](CCCCN)C(=O)N[C@@H](CCCNC(=N)N)C(=O)N[C@@H](CCCCN)C(=O)N[C@@H](C)C(=O)N[C@@H](Cc1c[nH]c2ccccc12)C(=O)O)[C@@H](C)CC)C(C)C)[C@@H](C)CC [Syn-sordellicin-80] (H-AGTNRIAKELRRYIRKVGRIKRKAW-OH; N-terminus and C-terminus assumed) | 2 µM | – | 64 µM | 16 µM | – | 0.25 µM | – | – | 2 µM | 0.5 µM | 11.3% | 64 µM | 16 µM | –
